Where a name gives a salt, the structure may show the parent alone.

The values that follow come from patent US20240174603A1 (Rappta Therapeutics Oy, priority 2021, published 2024).

The first assay relates to LNCaP cells. Briefly: LNCaP cell viability assay (MTS). The format is cell-based. The note with it: Homo sapiens, LNCaP cell line, 48 hours. The procedure, abridged: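 LNCaP cells (5000/well) treated 24 h after plating with compound at 1–80 µM for 48 h. Relative cell number read by MTS; GI50 from four-parameter variable-slope log(inhibitor) fit with bottom constrained to zero.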
One may read the GI50 as the concentration giving 50% growth inhibition. A higher GI50 goes with less potent growth inhibition. In turn, `CN(C)CC(NS(=O)(=O)c1ccc(OC(F)(F)F)cc1)c1ccc(C(F)(F)F)cc1` (centres unmarked) [Compound 219, N-(2-(dimethylamino)-1-(4-(trifluoromethyl)phenyl)ethyl)-4-(trifluoromethoxy)benzenesulfonamide] registered a GI50 of 43.6 µM.
Same read-out and setting: then `CN(C)CC(NS(=O)(=O)c1ccc([N+](=O)[O-])c(OC(F)(F)F)c1)c1ccc(Cl)c(Cl)c1` (centres unmarked) [Compound 222, N-(1-(3,4-dichlorophenyl)-2-(dimethylamino)ethyl)-4-nitro-3-(trifluoromethoxy)benzenesulfonamide], with 1.34 µM.
`CN(C)CC(NS(=O)(=O)c1cccc(OC(F)(F)F)c1[N+](=O)[O-])c1ccc(Cl)c(Cl)c1` (centres unmarked) [Compound 223, N-(1-(3,4-dichlorophenyl)-2-(dimethylamino)ethyl)-2-nitro-3-(trifluoromethoxy)benzenesulfonamide] returned a GI50 of 57.4 µM.

Staying with this assay, now noted: Homo sapiens, LNCaP, 48 h, LNCaP cell line.
`CN(C)CC(NS(=O)(=O)c1ccc(-c2ccccn2)cc1)c1ccc(Cl)c(Cl)c1` (centres unmarked) [Compound 218, N-(1-(3,4-dichlorophenyl)-2-(dimethylamino)ethyl)-4-(pyridin-2-yl)benzenesulfonamide] had a GI50 of 43.7 µM.
As to `CN(C)CC(NS(=O)(=O)c1ccc(Oc2cccc(F)c2)cc1)c1ccc(Cl)c(Cl)c1` (centres unmarked) [Compound 220, N-(1-(3,4-dichlorophenyl)-2-(dimethylamino)ethyl)-4-(3-fluorophenoxy)benzenesulfonamide], the GI50 is 21.1 µM.
On the same count and under the same terms, then `CN(C)CC(NS(=O)(=O)c1ccc(Oc2ccc(F)cc2)cc1)c1ccc(Cl)c(Cl)c1` (centres unmarked) [Compound 221, N-(1-(3,4-dichlorophenyl)-2-(dimethylamino)ethyl)-4-(4-fluorophenoxy)benzenesulfonamide], with 26.6 µM; and `CC(C)(C)OC(=O)NCC(NS(=O)(=O)c1ccc(OC(F)(F)F)cc1)c1ccc(Cl)c(Cl)c1` (centres unmarked) [Compound 224, tert-butyl (2-(3,4-dichlorophenyl)-2-((4-(trifluoromethoxy)phenyl)sulfonamido)ethyl)carbamate], with 15.9 µM; and `NCC(NS(=O)(=O)c1ccc(OC(F)(F)F)cc1)c1ccc(Cl)c(Cl)c1` (centres unmarked) [Compound 225, N-(2-amino-1-(3,4-dichlorophenyl)ethyl)-4-(trifluoromethoxy)benzenesulfonamide hydrochloride], with 21.8 µM.
Compound `COC(=O)c1cc(S(=O)(=O)NC(CN(C)C)c2ccc(Cl)c(Cl)c2)ccc1OC(F)(F)F` (centres unmarked) [Compound 226, methyl 5-(N-(1-(3,4-dichlorophenyl)-2-(dimethylamino)ethyl)sulfamoyl)-2-(trifluoromethoxy)benzoate] came in with a GI50 of 70.6 µM.
Compound `O=S(=O)(NCC1(c2ccc(Cl)c(Cl)c2)CC1)c1ccc(OC(F)(F)F)cc1` [Compound 227, N-((1-(3,4-dichlorophenyl)cyclopropyl)methyl)-4-(trifluoromethoxy)benzenesulfonamide] showed a GI50 of 48.6 µM.
The same measure, in the same setting: the result for `O=S(=O)(NCC1(c2ccc(Cl)cc2)CC1)c1ccc(OC(F)(F)F)cc1` [Compound 228, N-((1-(4-chlorophenyl)cyclopropyl)methyl)-4-(trifluoromethoxy)benzenesulfonamide] reads 59.9 µM; that for `O=S(=O)(NCC1(c2ccc(Cl)cc2)CCC1)c1ccc(OC(F)(F)F)cc1` [Compound 229, N-((1-(4-chlorophenyl)cyclobutyl)methyl)-4-(trifluoromethoxy)benzenesulfonamide], 42.5 µM.
`CC1(C)CC1(CNS(=O)(=O)c1ccc(OC(F)(F)F)cc1)c1ccccc1` (centres unmarked) [Compound 230, N-((2,2-dimethyl-1-phenylcyclopropyl)methyl)-4-(trifluoromethoxy)benzenesulfonamide] registered a GI50 of 37.3 µM.
On the same count and under the same terms, the result for `O=S(=O)(NCC1(c2ccc(Cl)c(Cl)c2)CC1)c1ccc(Oc2ccc(C(F)(F)F)cc2)cc1` [Compound 231, N-((1-(3,4-dichlorophenyl)cyclopropyl)methyl)-4-(4-(trifluoromethyl)phenoxy)benzenesulfonamide] reads 47.7 µM.
Consider `O=[N+]([O-])c1cc(S(=O)(=O)NCC2(c3ccc(Cl)c(Cl)c3)CC2)ccc1OC(F)(F)F` [Compound 232, N-((1-(3,4-dichlorophenyl)cyclopropyl)methyl)-3-nitro-4-(trifluoromethoxy)benzenesulfonamide], for which halving of growth (GI50) required 31.1 µM.
In turn, `CN1CCN(CC(NS(=O)(=O)c2ccc(Oc3ccc(C(F)(F)F)cc3)cc2)c2ccc(Cl)c(Cl)c2)CC1` (centres unmarked) [Compound 233, N-(1-(3,4-dichlorophenyl)-2-(4-methylpiperazin-1-yl)ethyl)-4-(4-(trifluoromethyl)phenoxy)benzenesulfonamide] showed a GI50 of 6.19 µM.
Take `CN1CCN(CC(NS(=O)(=O)c2ccc(Oc3ccccc3)cc2)c2ccc(Cl)cc2)CC1` (centres unmarked) [Compound 234, N-(1-(4-chlorophenyl)-2-(4-methylpiperazin-1-yl)ethyl)-4-phenoxybenzenesulfonamide]: the GI50 turned out to be 12.1 µM.
The same measure, in the same setting: then `CN1CCN(CC(NS(=O)(=O)c2ccc(Oc3ccc(C(F)(F)F)cc3)cc2)c2ccc(Cl)cc2)CC1` (centres unmarked) [Compound 235, N-(1-(4-chlorophenyl)-2-(4-methylpiperazin-1-yl)ethyl)-4-(4-(trifluoromethyl)phenoxy)benzenesulfonamide], with 11.3 µM; and `CN1CCN(CC(NS(=O)(=O)c2ccc(Oc3ccccc3)cc2)c2ccc(Cl)c(Cl)c2)CC1` (centres unmarked) [Compound 236, N-(1-(3,4-dichlorophenyl)-2-(4-methylpiperazin-1-yl)ethyl)-4-phenoxybenzenesulfonamide], with 12.3 µM; and `O=S(=O)(NC(CN1CCNCC1)c1ccc(Cl)c(Cl)c1)c1ccc(OC(F)(F)F)cc1` (centres unmarked) [Compound 237, N-(1-(3,4-dichlorophenyl)-2-(piperazin-1-yl)ethyl)-4-(trifluoromethoxy)benzenesulfonamide], with 6.84 µM.
Still for that read-out and setting: the result for `CN(C)CC(NS(=O)(=O)c1ccc(Oc2ccccc2C(F)(F)F)cc1)c1ccc(Cl)c(Cl)c1` (centres unmarked) [Compound 238, N-(1-(3,4-dichlorophenyl)-2-(dimethylamino)ethyl)-4-(2-(trifluoromethyl)phenoxy)benzenesulfonamide] reads 21.9 µM.
Same read-out and setting: the result for `CN(C)CC(NS(=O)(=O)c1ccc(C2CCCCO2)cc1)c1ccc(Cl)c(Cl)c1` (centres unmarked) [Compound 239, N-(1-(3,4-dichlorophenyl)-2-(dimethylamino)ethyl)-4-(tetrahydro-2H-pyran-2-yl)benzenesulfonamide] reads 28.2 µM; that for `CN(C)CC(NS(=O)(=O)c1ccc(OC(F)(F)F)c(C#N)c1)c1ccc(Cl)c(Cl)c1` (centres unmarked) [Compound 240, 3-cyano-N-(1-(3,4-dichlorophenyl)-2-(dimethylamino)ethyl)-4-(trifluoromethoxy)benzenesulfonamide], 24.6 µM.
The compound `CCCOC1CCN(CC(NS(=O)(=O)c2ccc(OC(F)(F)F)cc2)c2ccc(Cl)c(Cl)c2)CC1` (centres unmarked) [Compound 241, N-(1-(3,4-dichlorophenyl)-2-(4-propoxypiperidin-1-yl)ethyl)-4-(trifluoromethoxy)benzenesulfonamide] had a GI50 of 31.9 µM.
Still for that read-out and setting: the result for `CNCC(NS(=O)(=O)c1ccc(OC(F)(F)F)cc1)c1ccc(Cl)c(Cl)c1` (centres unmarked) [Compound 242, N-(1-(3,4-dichlorophenyl)-2-(methylamino)ethyl)-4-(trifluoromethoxy)benzenesulfonamide] reads 24.1 µM.
Still for that read-out and setting: the result for `O=S(=O)(NCC1(c2ccc(Cl)c(Cl)c2)CCCC1)c1ccc(OC(F)(F)F)cc1` [Compound 243, N-((1-(3,4-dichlorophenyl)cyclopentyl)methyl)-4-(trifluoromethoxy)benzenesulfonamide] reads 51.7 µM; that for `O=S(=O)(NCC1(c2ccc(Cl)cc2)CCCC1)c1ccc(OC(F)(F)F)cc1` [Compound 244, N-((1-(4-chlorophenyl)cyclopentyl)methyl)-4-(trifluoromethoxy)benzenesulfonamide], 56.1 µM; that for `CC(C)(NS(=O)(=O)c1ccc(OC(F)(F)F)cc1)C1(c2ccc(Cl)c(Cl)c2)CC1` [Compound 245, N-(2-(1-(3,4-dichlorophenyl)cyclopropyl)propan-2-yl)-4-(trifluoromethoxy)benzenesulfonamide], 45.2 µM.
In turn, `CN(C)C[C@@H](Cc1ccc(Cl)c(Cl)c1)NS(=O)(=O)c1ccc(OC(F)(F)F)cc1` [Compound 246, (R)—N-(1-(3,4-dichlorophenyl)-3-(dimethylamino)propan-2-yl)-4-(trifluoromethoxy)benzenesulfonamide] showed a GI50 of 23.8 µM.
`CN(C)C[C@H](Cc1ccc(Cl)c(Cl)c1)NS(=O)(=O)c1ccc(OC(F)(F)F)cc1` [Compound 247, (S)—N-(1-(3,4-dichlorophenyl)-3-(dimethylamino)propan-2-yl)-4-(trifluoromethoxy)benzenesulfonamide] registered a GI50 of 22.8 µM.
The same measure, in the same setting: then `CN(C)CC(NS(=O)(=O)c1ccc(OC2CCC2)cc1)c1ccc(Cl)c(Cl)c1` (centres unmarked) [Compound 248, 4-cyclobutoxy-N-(1-(3,4-dichlorophenyl)-2-(dimethylamino)ethyl)benzenesulfonamide], with 16.4 µM.
With `CN(C)C(=O)[C@H](Cc1ccc(Cl)c(Cl)c1)NS(=O)(=O)c1ccc(OC(F)(F)F)cc1` [Compound 249, (S)-3-(3,4-dichlorophenyl)-N,N-dimethyl-2-((4-(trifluoromethoxy)phenyl)sulfonamido)propenamide], the GI50 came to 65.3 µM.
In the case of `CN(C)CC(c1ccc(Cl)c(Cl)c1)N(C)S(=O)(=O)c1ccc(OC(F)(F)F)cc1` (centres unmarked) [Compound 250, N-(1-(3,4-dichlorophenyl)-2-(dimethylamino)ethyl)-N-methyl-4-(trifluoromethoxy)benzenesulfonamide], the GI50 was 39.6 µM.
Still for that read-out and setting: then `CN(C)CC(NS(=O)(=O)c1ccc(NC2CCCC2)cc1)c1ccc(Cl)c(Cl)c1` (centres unmarked) [Compound 251, 4-(cyclopentylamino)-N-(1-(3,4-dichlorophenyl)-2-(dimethylamino)ethyl)benzenesulfonamide], with 22.4 µM; and `CN(C)CC(NS(=O)(=O)c1ccc(NC2CCC2)cc1)c1ccc(Cl)c(Cl)c1` (centres unmarked) [Compound 252, 4-(cyclobutylamino)-N-(1-(3,4-dichlorophenyl)-2-(dimethylamino)ethyl)benzenesulfonamide], with 22.8 µM.
